# Reference: patent US12195450B2, “Small molecule neutral sphingomyelinase 2 (nSMase2) inhibitors” (The Johns Hopkins University, priority 2019, dated 2025)
# Structures can show the parent of a compound that is named as a salt.
# Biological target: T1, nSMase2 (Homo sapiens, UniProt Q9NY59)
# T1 sequence (Q9NY59 1-655): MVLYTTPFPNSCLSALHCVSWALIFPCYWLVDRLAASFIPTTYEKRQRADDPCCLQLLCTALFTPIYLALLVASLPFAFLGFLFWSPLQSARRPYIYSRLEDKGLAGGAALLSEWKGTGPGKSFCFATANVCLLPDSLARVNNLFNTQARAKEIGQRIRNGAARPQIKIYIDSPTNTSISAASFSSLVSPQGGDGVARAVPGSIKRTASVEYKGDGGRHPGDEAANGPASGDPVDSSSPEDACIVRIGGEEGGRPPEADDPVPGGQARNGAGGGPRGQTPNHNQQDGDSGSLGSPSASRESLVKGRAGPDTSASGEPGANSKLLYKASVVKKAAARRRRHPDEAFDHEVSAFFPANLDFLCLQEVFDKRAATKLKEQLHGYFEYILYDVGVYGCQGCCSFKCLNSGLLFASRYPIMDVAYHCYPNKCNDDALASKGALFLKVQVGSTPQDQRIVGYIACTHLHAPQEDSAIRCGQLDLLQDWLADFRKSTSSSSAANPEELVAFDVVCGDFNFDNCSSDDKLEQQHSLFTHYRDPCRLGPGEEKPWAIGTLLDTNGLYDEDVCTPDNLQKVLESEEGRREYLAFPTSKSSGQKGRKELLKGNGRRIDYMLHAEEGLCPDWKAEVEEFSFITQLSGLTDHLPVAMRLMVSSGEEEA
# Experiment: Inhibition of nSMase2 (IC50)
# Format: biochemical
# [1] = Table 1, Representative Inhibitors of nSMase2 of Formula (I)
SMILES,IC50 [1] [µM],"IC50 (Table 2, Inhibition of nSMase) [µM]"
"COc1cc(-c2ncc[nH]2)cc(OC)c1O [Compound 18, 4-(1H-imidazol-2-yl)-2,6-dimethoxyphenol]",0.4,0.4
"COc1cc(-c2nc(C)c(C)[nH]2)cc(OC)c1O [Compound 19, 4-(4,5-dimethyl-1H-imidazol-2-yl)-2,6-dimethoxyphenol hydrochloride]",0.5,0.5
"COc1cc(-c2nc3c([nH]2)CCCC3)cc(OC)c1O [Compound 20, 2,6-dimethoxy-4-(4,5,6,7-tetrahydro-1H-benzo[d]imidazol-2-yl)phenol]",0.4,0.4
"CC(C)Oc1cc(-c2nc(-c3ccccc3)c(-c3cccs3)[nH]2)cc(OC(C)C)c1O [Compound 22, 2,6-diisopropoxy-4-(4-phenyl-5-(thiophen-2-yl)-1H-imidazol-2-yl)phenol]",0.02,0.03
"COc1cc(-c2ncc(-c3ccccc3)[nH]2)cc(OC)c1O [Compound 23, 2,6-dimethoxy-4-(5-phenyl-1H-imidazol-2-yl)phenol hydrochloride]",,0.07
"COc1cc(-c2ncc(C)[nH]2)cc(OC)c1O [Compound 24, 2,6-dimethoxy-4-(5-methyl-1H-imidazol-2-yl)phenol]",0.2,0.2
"COc1cc(-c2nc(-c3ccccc3)c(-c3ccccc3)[nH]2)cc(OC)c1O [Compound 25, 4-(4,5-diphenyl-1H-imidazol-2-yl)-2,6-dimethoxyphenol]",,0.02
"COc1cc(-c2ncc(-c3ccc(Br)cc3)[nH]2)cc(OC)c1O [Compound 26, 4-(5-(4-bromophenyl)-1H-imidazol-2-yl)-2,6-dimethoxyphenol]",0.2,0.2
"COc1cc(-c2nc(-c3cccs3)c(-c3cccs3)[nH]2)cc(OC)c1O [Compound 27, 4-(4,5-di(thiophen-2-yl)-1H-imidazol-2-yl)-2,6-dimethoxyphenol]",0.02,
"COc1ccc(-c2nc(-c3cc(OC)c(O)c(OC)c3)[nH]c2-c2ccc(OC)cc2)cc1 [Compound 28, 4-(4,5-bis(4-methoxyphenyl)-1H-imidazol-2-yl)-2,6-dimethoxyphenol]",0.02,
"COc1cc(-c2nc(-c3ccc(C)cc3)c[nH]2)cc(OC)c1O [Compound 29, 2,6-dimethoxy-4-(4-p-tolyl-1H-imidazol-2-yl)phenol]",0.1,0.1
"Oc1c(OC2CCCC2)cc(-c2nc(-c3ccccc3)c(-c3cccs3)[nH]2)cc1OC1CCCC1 [Compound 30, 2,6-bis(cyclopentyloxy)-4-(5-phenyl-4-(thiophen-2-yl)-1H-imidazol-2-yl)phenol]",0.1,0.1
"CCCOc1cc(-c2nc(-c3cccs3)c(-c3ccccc3)[nH]2)cc(OCCC)c1O [Compound 31, 4-(5-phenyl-4-(thiophen-2-yl)-1H-imidazol-2-yl)-2,6-dipropoxyphenol]",0.04,0.04
"CCCCc1[nH]c(-c2cc(OC)c(O)c(OC)c2)nc1C [Compound 32, 4-(5-butyl-4-methyl-1H-imidazol-2-yl)-2,6-dimethoxyphenol]",0.06,
"CCc1nc(-c2cc(OC)c(O)c(OC)c2)[nH]c1CC [Compound 33, 4-(4,5-diethyl-1H-imidazol-2-yl)-2,6-dimethoxyphenol]",0.08,0.08
"COc1cc(-c2nc(-c3ccco3)c(-c3ccco3)[nH]2)cc(OC)c1O [Compound 34, 4-(4,5-di(furan-2-yl)-1H-imidazol-2-yl)-2,6-dimethoxyphenol hydrochloride]",0.03,0.03

SMILES,IC50 [1] [µM],"IC50 (Table 2, Inhibition of nSMase) [µM]"
"COc1cc(-c2nc(C)c(-c3ccccc3)[nH]2)cc(OC)c1O [Compound 35, 2,6-dimethoxy-4-(4-methyl-5-phenyl-1H-imidazol-2-yl)phenol]",0.02,
"Oc1c(OCC(F)(F)F)cc(-c2nc(-c3ccccc3)c(-c3cccs3)[nH]2)cc1OCC(F)(F)F [Compound 36, 4-(4-phenyl-5-(thiophen-2-yl)-1H-imidazol-2-yl)-2,6-bis(2,2,2-trifluoroethoxy)phenol]",0.06,0.06
"CCc1nc(-c2cc(OCC(F)(F)F)c(O)c(OCC(F)(F)F)c2)[nH]c1CC [Compound 37, 4-(4,5-diethyl-1H-imidazol-2-yl)-2,6-bis(2,2,2-trifluoroethoxy)phenol]",0.7,0.7
"COc1cc(-c2nc(-c3ccc(C)cc3)c(-c3ccc(C)cc3)[nH]2)cc(OC)c1O [Compound 38, 4-(4,5-di-p-tolyl-1H-imidazol-2-yl)-2,6-dimethoxyphenol]",0.06,0.06
"COc1cc(-c2ncc(C34CC5CC(CC(C5)C3)C4)[nH]2)cc(OC)c1O [Compound 39, 2,6-dimethoxy-4-(5-adamantyl-1H-imidazol-2-yl)phenol]",0.2,0.2
"CCc1nc(-c2cc(OC)c(O)c(OC)c2)[nH]c1-c1ccccn1 [Compound 40, 4-(4-ethyl-5-(pyridin-2-yl)-1H-imidazol-2-yl)-2,6-dimethoxyphenol hydrochloride]",0.5,0.5
"COc1cc(-c2nc(-c3cccs3)c(C)[nH]2)cc(OC)c1O [Compound 41, 2,6-dimethoxy-4-(4-methyl-5-(thiophen-2-yl)-1H-imidazol-2-yl)phenol hydrochloride]",0.01,0.01
"COc1cc(-c2nc3ccccc3[nH]2)cc(OC)c1O [Compound 42, 4-(1H-benzo[d]imidazol-2-yl)-2,6-dimethoxyphenol]",0.6,0.6
"COc1cc(-c2nc3cccnc3[nH]2)cc(OC)c1O [Compound 43, 4-(3H-imidazo[4,5-b]pyridin-2-yl)-2,6-dimethoxyphenol]",4,4
"COc1cc(-c2nc3c(C)ccc(C)c3[nH]2)cc(OC)c1O [Compound 44, 4-(4,7-dimethyl-1H-benzo[d]imidazol-2-yl)-2,6-dimethoxyphenol]",0.8,0.8
"CC(C)(C)Oc1cc(-c2nc(-c3ccccc3)c(-c3cccs3)[nH]2)cc(OC(C)(C)C)c1O [Compound 45, 2,6-di-tert-butoxy-4-(4-phenyl-5-(thiophen-2-yl)-1H-imidazol-2-yl)phenol]",0.4,0.4
"CCCCc1nc(-c2cc(OC)c(O)c(OC)c2)[nH]c1CCCC [Compound 46, 4-(4,5-dibutyl-1H-imidazol-2-yl)-2,6-dimethoxyphenol]",0.2,0.2
"COc1cc(-c2nc(C(C)C)c(C(C)C)[nH]2)cc(OC)c1O [Compound 47, 4-(4,5-diisopropyl-1H-imidazol-2-yl)-2,6-dimethoxyphenol]",0.06,0.06
"COc1cc(-c2nc(-c3ccccc3)c(C(C)C)[nH]2)cc(OC)c1O [Compound 48, 4-(5-isopropyl-4-phenyl-1H-imidazol-2-yl)-2,6-dimethoxyphenol]",0.06,0.06
COc1cc(-c2nc(-c3ccccc3)c(-c3cccs3)n2C)cc(OC)c1O [Compound 3455],60,
COc1cc(C2=NC3CCCCC3N2)cc(OC)c1O (centres unmarked) [Compound 3546],70,
